Test results taken from patent publication US20250127740A1, “COMPOSITION CONTAINING 3-HYDROXYANTHRANILIC ACID AND COMPOUNDS THAT ALTER IRON HOMEOSTASIS AND METHOD OF ITS USE” (priority 2021, published 2025).

Legend:
E. coli [1] = format: cell-based; conditions: different dosages; liquid media OD 600 nm and CFUs on solid media; single compound
Protocol: (§1) 3HAA was tested for its ability to negatively impact bacterial growth. 3HAA was tested at different dosages for inhibition of E. coli and P. aeruginosa growth in liquid media (measured by optical density at 600 nm) and colony forming units (CFUs) on solid media.
(§2) Deferoxamine (DFO) was also tested for its ability to impact bacterial growth. Deferoxamine was tested at different dosages for inhibition of E. coli and P. aeruginosa growth in liquid media (measured by optical density at 600 nm) and CFUs on solid media.

P. aeruginosa [2] = assay: Inhibition of P. aeruginosa growth in liquid media (OD 600 nm) and CFUs on solid media; format: cell-based; conditions: different dosages, single compound
Protocol: as §1, §2

bacterial growth = assay: Growth lag-time in liquid media; format: cell-based; conditions: 1 mM 3HAA, 15 uM DFO, alone or combined
Protocol: By contrast, 1 mM 3HAA alone increased lag-time by 6% individually. 15 uM DFO alone increased lag-time by 4% individually. Combination of 1 mM 3HAA with 15 uM DFO provided multiple fold impact on growth inhibition that is statistically significant to either single treatment alone.

E. coli [3] = assay: Colony formation (CFUs) of E. coli on culture plate; format: cell-based
E. coli [4] = assay: Colony size of E. coli on plates; format: cell-based; conditions: for effect on colony size (E. coli): 1 mM 3HAA or 8 mM FAC alone
Protocol: To test the effects of 3HAA, DFO and FAC on colony size, colony size was measured for E. coli in plates containing 1 mM 3HAA, 15 uM DFO, and 8 mM FAC alone and in combination.

P. aeruginosa [5] = assay: Colony formation (CFUs) of P. aeruginosa on culture plate; format: cell-based; conditions: 1 mM 3HAA and 15 uM DFO alone or in combination
Protocol: To test the effects of 3HAA and DFO on colony formation of P. aeruginosa, 1 mM 3HAA and 15 uM DFO alone or in combination were added to culture plate containing P. aeruginosa.

E. coli [6] = assay: Pre-treatment of E. coli in liquid media, then colony count on DFO+3HAA plates; format: cell-based; conditions: pretreatment 1 mM 3HAA or 15 uM DFO, 16 hr at 37 degrees
Protocol: E. coli inoculates were grown in liquid media containing either control (no additives), 1 mM 3HAA or 15 uM DFO for 16 hr at 37 degrees with shaking. The cultures were spotted to either Control plates (no additives) or plate containing DFO+3HAA and left to dry at room temperature. After incubated at 37 degrees for 16 hours, colonies were counted.

C. elegans = format: in vivo; conditions: added to culture medium of haao-1 knockout worms (elevated endogenous 3HAA)
Excerpt: Using the haao-1 knockout strain exposes the animals, but not their bacterial food source, to 3HAA.

E. coli infection = assay: Infection of C. elegans challenged with fluorescently labeled E. coli; format: in vivo; conditions: fluorescence microscopy over 7 days
Excerpt: Infection was monitored using fluorescence microscopy over 7 days. Heatmap of infection progression of individual animals over days—purple 32 not infected, red=high infection.

[7] = 1 mM 3HAA and 8 mM FAC alone or in combination

Row | Compound | impact on growth of E. coli (E. coli [1]) | impact on growth of P. aeruginosa (P. aeruginosa [2]) | increase in growth lag-time (bacterial growth) | impact on colony formation (E. coli) (E. coli [3]; [7]) | impact on colony formation (E. coli) (E. coli [3]; 1 mM 3HAA or 15 uM DFO alone) | effect on colony size (E. coli) (E. coli [4]) | impact on colony formation (P. aeruginosa) (P. aeruginosa [5]) | sensitization of bacteria to the 3HAA and DFO combination by pretreatment (E. coli [6]) | decrease of colony size / colony area (E. coli) (E. coli [4]; 1 mM 3HAA, 15 uM DFO, 8 mM FAC, alone or in combination) | toxicity to C. elegans relative to wild type animals (C. elegans) | protection from E. coli infection (E. coli infection; haao-1 knockout worms (high endogenous 3HAA)) | protection from E. coli infection (E. coli infection; wild type worms)
1 | Nc1c(O)cccc1C(=O)O [3HAA, 3-hydroxyanthanilic acid] | negatively affects growth of both E. coli and P. aeruginosa, but only at high doses | negatively affects growth of both E. coli and P. aeruginosa, but only at high doses | 6% | no significant impact was observed | Neither 1 mM 3HAA nor 15 uM DFO alone showed significant impact | increased colony size | neither affected colony formation alone | sensitizes bacteria to the combination of 3HAA and DFO | – | – | – | –
2 | CC(=O)N(O)CCCCCNC(=O)CCC(=O)N(O)CCCCCNC(=O)CCC(=O)N(O)CCCCCN [DFO, deferoxamine, reference compound] | – | – | 4% | – | – | – | – | – | ~8% | neither the combination of DFO and elevated 3HAA (haao-1) nor the combination of FAC with elevated 3HAA (haao-1) were toxic | – | –
3 | ferric ammonium citrate [FAC] | very little impact | very little impact | – | no significant impact was observed | – | increased colony size | – | – | – | – | This protection was enhanced | protected from infection
